Key:
[1] = target: T1, hSTING c-terminal domain (purified hSTING aa154-342) (Homo sapiens, UniProt Q86WV6); assay: Thermal shift assay for measuring the relative binding affinity to hSTING c-terminal domain; conditions: Tm of sample minus mean Tm of negative control (buffer, 2% DMSO), SYPRO Orange
T1 construct: Purified hSTING (aa154-342)
Method: Test Example 1. Thermal Shift Assay for Measuring the Relative Binding Affinity to hSTING c-Terminal Domain
From each of the 10 mM stock solutions of compounds in DMSO, dilutions are made to create samples with three concentrations 10 mM, 5 mM and 2.5 mM. From these dilutions a final 50 fold dilution is made into assay buffer, giving concentrations of 200 μM, 100 μM, and 50 μM. From each of the buffer dilutions, 5 μL is added to the 384 well assay plate. A positive control is setup with cGAMP using the same dilution scheme as the ligands. A baseline thermal shift for the negative control is determined using buffer and 2% DMSO.
An aliquot of protein is thawed on ice and SYPRO orange reagent is brought to room temperature. The 5000× SYPRO orange stock is diluted in assay buffer to a concentration of 10×. Protein is diluted to a concentration of 10 μM in the prepared buffer/dye solution. Five micro-liters of protein/buffer/dye solution is added to each of the sample and control wells, and the plate is sealed with the provided films. The plate is centrifuged for 5 min at 20° C. at 1000 rpm.
On the Light Cycler instrument, measurements are made over a temperature gradient from 20° C. to 99° C. at 0.07° C./s and data acquisitions collected at a rate of 8/° C. is used to measure the change in fluorescence as a function of temperature. Data analysis is performed using the Roche Light Cycler Software to determine the melting temperature (Tm ° C.) of each sample. A mean Tm ° C. for the negative control is calculated and subtracted from each of the samples to generate the ΔTm ° C. values for each of the ligands.
The relative binding affinity to hSTING c-terminal domain of the compounds of the present invention was determined by the above assay, and ΔTm ° C. values are shown in the following table 1.

[2] = target: T2, STING in THP1-Dual KI-hSTING-R232 cells (Homo sapiens, UniProt Q86WV6, H232R); assay: Human THP1 reporter cell assay (IRF luciferase reporter); assay type: cell-based; conditions: 24 hours incubation
T2 construct: host or cells: THP1-Dual KI-hSTING-R232 cells (human monocytic THP-1 reporter line)
T2 sequence (Q86WV6 whole entry H232R): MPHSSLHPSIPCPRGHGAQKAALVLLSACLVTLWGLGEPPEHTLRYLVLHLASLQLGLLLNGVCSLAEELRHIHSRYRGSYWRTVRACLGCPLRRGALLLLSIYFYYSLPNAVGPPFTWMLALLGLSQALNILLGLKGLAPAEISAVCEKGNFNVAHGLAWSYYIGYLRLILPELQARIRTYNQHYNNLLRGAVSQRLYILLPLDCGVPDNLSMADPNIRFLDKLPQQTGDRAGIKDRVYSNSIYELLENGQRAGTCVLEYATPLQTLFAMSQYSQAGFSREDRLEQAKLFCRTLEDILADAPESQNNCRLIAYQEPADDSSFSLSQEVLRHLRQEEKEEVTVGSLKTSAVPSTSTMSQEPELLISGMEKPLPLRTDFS
Method: Test Example 2. Human THP1 Reporter Cell Assay
• 1. Human THP1-Dual KI-hSTING-R232 Cells (InvivoGen, Cat. #thpd-r232) • 2. QUANTI-LUC (InvivoGen, Cat. #rep-qlc2) • 3. Media for cell culture and compound dilution: RPMI with high glucose and glutamine (Genesee, Cat. #25-506), 10% fetal bovine serum (Life Technologies, Cat. #10082147), 25 mM HEPES (Genesee, Cat. #25-534), 100 μg/ml Normocin (InvivoGen, Cat. #ant-nr-2), 10 μg/ml blasticidin (InvivoGen, Cat. #ant-bl-05), 100 μg/ml Zeocin (InvivoGen, Cat. #ant-zn-5p) and Penicillin-Streptomycin (100×) (Life Technologies, Cat. #15140122) • 4. Infinite M1000 plate reader (TECAN) Experimental Procedure
Activation of STING in THP1-Dual KI-hSTING-R232 cells was determined by measuring the luminescence signal resulting from the expression of the IRF luciferase reporter gene. All reagent preparation and assay procedures were conducted according to the protocols provided by InvivoGen. In brief, test compounds and cells (1×10^5 cells per well) were dispensed into 96-well plates with a final volume per well of 150 μl. Plates were incubated in a humidified, 5% CO2 incubator at 37° C. for 24 hours. The expression level of the reporter gene was measured by transferring 20 μl of the supernatant to a non-transparent 96-well plate to which 50 μl of QUANTI-LUC was dispensed into each well. The resulting luminescence signal was immediately read using a TECAN plate reader. The background luminescence signal from media was subtracted. The fold induction effect of the luminescence signal at each compound concentration was determined relative to controls that lack compound treatment. The plot of fold induction effect versus the log of compound concentration was fit in GraphPad Prism with a 4-parameter concentration response equation to calculate EC50 and Emax.
Activation of STING in THP1 of the compounds in the present invention was determined by the above assay, and EC50 values are shown in the following table 2.

T1 sequence (Q86WV6 154-342): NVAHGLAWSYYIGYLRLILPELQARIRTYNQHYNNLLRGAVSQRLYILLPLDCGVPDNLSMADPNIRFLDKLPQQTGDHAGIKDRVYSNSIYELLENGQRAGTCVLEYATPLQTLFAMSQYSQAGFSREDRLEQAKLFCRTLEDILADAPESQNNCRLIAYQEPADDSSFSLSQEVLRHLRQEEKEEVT

CCn1nc(C)cc1C(=O)Nc1nc2cc(C(N)=O)cc(OC)c2n1CCCCC1COc2cc(C(N)=O)cc3nc(NC(=O)c4cc(C)nn4CC)n1c23 (stereo in doubt) [Example 16, (S)-3-(4-(5-carbamoyl-2-(1-ethyl-3-methyl-1H-pyrazole-5-carboxamido)-7-methoxy-1H-benzo[d]imidazol-1-yl)butyl)-2-(1-ethyl-3-methyl-1H-pyrazole-5-carboxamido)-3,4-dihydro-5-oxa-1,2a-diazaacenaphthylene-7-carboxamide]
ΔTm at 100 µM [1]: 1 °C

CCn1nc(C)cc1C(=O)Nc1nc2cc(C(N)=O)cc3c2n1CCO3 [Example 2, 2-(1-ethyl-3-methyl-1H-pyrazole-5-carboxamido)-3,4-dihydro-5-oxa-1,2a-diazaacenaphthylene-7-carboxamide]
ΔTm at 100 µM [1]: 1.1 °C

CCn1nc(C)cc1C(=O)N(C)c1nc2cc(C(N)=O)cc3c2n1CCO3 [Example 3, 2-(1-ethyl-N,3-dimethyl-1H-pyrazole-5-carboxamido)-3,4-dihydro-5-oxa-1,2a-diazaacenaphthylene-7-carboxamide]
ΔTm at 100 µM [1]: 0.7 °C

CCn1nc(C)cc1C(=O)Nc1nc2cc(C(N)=O)cc3c2n1[C@@H](CCCNC(=O)OCc1ccccc1)CO3 [Example 4, (S)-benzyl (3-(7-carbamoyl-2-(1-ethyl-3-methyl-1H-pyrazole-5-carboxamido)-3,4-dihydro-5-oxa-1,2a-diazaacenaphthylen-3-yl)propyl)carbamate]
ΔTm at 100 µM [1]: 4.6 °C

C/C=C/C[C@@H]1COc2cc(C(N)=O)cc3nc(NC(=O)c4cc(C)nn4CC)n1c23 [Example 5-1, (R,E)-3-(but-2-en-1-yl)-2-(1-ethyl-3-methyl-1H-pyrazole-5-carboxamido)-3,4-dihydro-5-oxa-1,2a-diazaacenaphthylene-7-carboxamide]
EC50 [2]: > 20000 nM

C=CC[C@@H]1COc2cc(C(N)=O)cc3nc(NC(=O)c4cc(C)nn4CC)n1c23 [Example 6, (R)-3-allyl-2-(1-ethyl-3-methyl-1H-pyrazole-5-carboxamido)-3,4-dihydro-5-oxa-1,2a-diazaacenaphthylene-7-carboxamide]
ΔTm at 100 µM [1]: -0.5 °C

CCC[C@H]1COc2cc(C(N)=O)cc3nc(NC(=O)c4cc(C)nn4CC)n1c23 [Example 7, (S)-2-(1-ethyl-3-methyl-1H-pyrazole-5-carboxamido)-3-propyl-3,4-dihydro-5-oxa-1,2a-diazaacenaphthylene-7-carboxamide]
ΔTm at 100 µM [1]: 5.4 °C

CCC=CC[C@H]1COc2cc(C(N)=O)cc3nc(NC(=O)c4cc(C)nn4CC)n1c23 [Example 8, (S)-2-(1-ethyl-3-methyl-1H-pyrazole-5-carboxamido)-3-(pent-2-en-1-yl)-3,4-dihydro-5-oxa-1,2a-diazaacenaphthylene-7-carboxamide]
EC50 [2]: 2600 nM
ΔTm at 100 µM [1]: 7.5 °C

CCn1nc(C)cc1C(=O)Nc1nc2cc(C(N)=O)cc3c2n1[C@@H](CC(O)CO)CO3 (stereo partly drawn) [Example 9, (3S)-3-(2,3-dihydroxypropyl)-2-(1-ethyl-3-methyl-1H-pyrazole-5-carboxamido)-3,4-dihydro-5-oxa-1,2a-diazaacenaphthylene-7-carboxamide]
ΔTm at 100 µM [1]: -0.1 °C

CCn1nc(C)cc1C(=O)Nc1nc2cc(C(N)=O)cc(OC)c2n1CCCNCCC1COc2cc(C(N)=O)cc3nc(NC(=O)c4cc(C)nn4CC)n1c23 (stereo not shown) [Example 17, 3-(2-((3-(5-carbamoyl-2-(1-ethyl-3-methyl-1H-pyrazole-5-carboxamido)-7-methoxy-1H-benzo[d]imidazol-1-yl)propyl)amino)ethyl)-2-(1-ethyl-3-methyl-1H-pyrazole-5-carboxamido)-3,4-dihydro-5-oxa-1,2a-diazaacenaphthylene-7-carboxamide]
ΔTm at 100 µM [1]: 2 °C

CCn1nc(C)cc1C(=O)Nc1nc2cc(C(N)=O)cc(OCCO)c2n1CCC[C@H]1COc2cc(C(N)=O)cc3nc(NC(=O)c4cc(C)nn4CC)n1c23 [Example 20, (S)-3-(3-(5-carbamoyl-2-(1-ethyl-3-methyl-1H-pyrazole-5-carboxamido)-7-(2-hydroxyethoxy)-1H-benzo[d]imidazol-1-yl)propyl)-2-(1-ethyl-3-methyl-1H-pyrazole-5-carboxamido)-3,4-dihydro-5-oxa-1,2a-diazaacenaphthylene-7-carboxamide]
EC50 [2]: 100 nM
ΔTm at 100 µM [1]: 13 °C

CCn1nc(C)cc1C(=O)Nc1nc2cc(C(N)=O)cc(OCCCOC)c2n1CCC[C@H]1COc2cc(C(N)=O)cc3nc(NC(=O)c4cc(C)nn4CC)n1c23 [Example 21, (S)-3-(3-(5-carbamoyl-2-(1-ethyl-3-methyl-1H-pyrazole-5-carboxamido)-7-(3-methoxypropoxy)-1H-benzo[d]imidazol-1-yl)propyl)-2-(1-ethyl-3-methyl-1H-pyrazole-5-carboxamido)-3,4-dihydro-5-oxa-1,2a-diazaacenaphthylene-7-carboxamide]
EC50 [2]: 60 nM
ΔTm at 100 µM [1]: 13 °C

CCn1nc(C)cc1C(=O)Nc1nc2cc(C(N)=O)cc(OCCCOP(=O)(O)O)c2n1CCC[C@H]1COc2cc(C(N)=O)cc3nc(NC(=O)c4cc(C)nn4CC)n1c23 [Example 23, (S)-3-((5-carbamoyl-1-(3-(7-carbamoyl-2-(1-ethyl-3-methyl-1H-pyrazole-5-carboxamido)-3,4-dihydro-5-oxa-1,2a-diazaacenaphthylen-3-yl)propyl)-2-(1-ethyl-3-methyl-1H-pyrazole-5-carboxamido)-1H-benzo[d]imidazol-7-yl)oxy)propyl dihydrogen phosphate]
EC50 [2]: 700 nM
ΔTm at 100 µM [1]: 11 °C

C=CCC1CCCOc2cc(C(N)=O)cc3nc(NC(=O)c4cc(C)nn4CC)n1c23 (stereo not shown) [Example 27, 10-allyl-1-(1-ethyl-3-methyl-1H-pyrazole-5-carboxamido)-7,8,9,10-tetrahydro-6-oxa-2,10a-diazacycloocta[cd]indene-4-carboxamide]
EC50 [2]: > 20000 nM

CCn1nc(C)cc1C(=O)Nc1nc2cc(C(N)=O)cc3c2n1[C@@H](C/C=C/CC(CC(=O)c1cc2cc(OC)c(OC)cc2s1)C(=O)O)CO3 (stereo partly drawn) [Example 28, (E)-6-((S)-7-carbamoyl-2-(1-ethyl-3-methyl-1H-pyrazole-5-carboxamido)-3,4-dihydro-5-oxa-1,2a-diazaacenaphthylen-3-yl)-2-(2-(5,6-dimethoxybenzo[b]thiophen-2-yl)-2-oxoethyl)hex-4-enoic acid]
EC50 [2]: > 20000 nM

C=CC[C@H]1CNc2cc(C(N)=O)cc3nc(NC(=O)c4cc(C)nn4CC)n1c23 [Example 29, (S)-4-allyl-2-(1-ethyl-3-methyl-1H-pyrazole-5-carboxamido)-5,6-dihydro-4H-imidazo[1,5,4-de]quinoxaline-8-carboxamide]
EC50 [2]: 12000 nM

C=CC[C@H]1CN(CCCOC)c2cc(C(N)=O)cc3nc(NC(=O)c4cc(C)nn4CC)n1c23 [Example 30, (S)-4-allyl-2-(1-ethyl-3-methyl-1H-pyrazole-5-carboxamido)-6-(3-methoxypropyl)-5,6-dihydro-4H-imidazo[1,5,4-de]quinoxaline-8-carboxamide]
EC50 [2]: 1500 nM

C=CC[C@H]1CN(C)c2cc(C(N)=O)cc3nc(NC(=O)c4cc(C)nn4CC)n1c23 [Example 31, (S)-4-allyl-2-(1-ethyl-3-methyl-1H-pyrazole-5-carboxamido)-6-methyl-5,6-dihydro-4H-imidazo[1,5,4-de]quinoxaline-8-carboxamide]
EC50 [2]: 2400 nM

Reference: US11535633B2, “Fused tricyclic heterocycle compounds and therapeutic uses thereof” (Jiangsu Hengrui Medicine Co., Ltd., priority 2018, dated 2022)
